From BindingDB's records for doi:10.1021/acschembio.6b00560 (Vanderbilt Institute of Chemical Biology, Vanderbilt …, 2016) come the findings set out here.

In test [1] the target is T1, Prostaglandin G/H synthase 1 (Ovis aries, UniProt P05979).
T1 sequence (P05979 whole entry): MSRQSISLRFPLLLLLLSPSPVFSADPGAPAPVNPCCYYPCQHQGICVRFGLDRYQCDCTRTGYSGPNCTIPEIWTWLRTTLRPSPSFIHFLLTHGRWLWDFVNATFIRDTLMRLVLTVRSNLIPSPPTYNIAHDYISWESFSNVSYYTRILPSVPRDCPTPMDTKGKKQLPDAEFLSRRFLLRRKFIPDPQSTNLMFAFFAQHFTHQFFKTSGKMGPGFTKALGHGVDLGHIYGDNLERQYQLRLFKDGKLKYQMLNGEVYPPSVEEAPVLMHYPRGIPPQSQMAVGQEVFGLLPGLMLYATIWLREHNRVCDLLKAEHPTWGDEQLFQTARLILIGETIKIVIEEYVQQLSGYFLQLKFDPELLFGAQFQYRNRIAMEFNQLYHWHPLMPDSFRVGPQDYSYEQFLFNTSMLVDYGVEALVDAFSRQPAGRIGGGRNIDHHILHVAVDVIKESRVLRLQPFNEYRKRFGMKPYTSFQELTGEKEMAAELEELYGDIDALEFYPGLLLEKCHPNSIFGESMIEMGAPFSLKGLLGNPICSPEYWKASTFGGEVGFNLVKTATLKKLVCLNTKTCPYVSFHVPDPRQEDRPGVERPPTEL
In words: COX Enzyme Inhibition Assay (Table 1).

Test [2] deals with T2, Prostaglandin G/H synthase 2 (Mus musculus, UniProt Q05769).
T2 sequence (Q05769 whole entry): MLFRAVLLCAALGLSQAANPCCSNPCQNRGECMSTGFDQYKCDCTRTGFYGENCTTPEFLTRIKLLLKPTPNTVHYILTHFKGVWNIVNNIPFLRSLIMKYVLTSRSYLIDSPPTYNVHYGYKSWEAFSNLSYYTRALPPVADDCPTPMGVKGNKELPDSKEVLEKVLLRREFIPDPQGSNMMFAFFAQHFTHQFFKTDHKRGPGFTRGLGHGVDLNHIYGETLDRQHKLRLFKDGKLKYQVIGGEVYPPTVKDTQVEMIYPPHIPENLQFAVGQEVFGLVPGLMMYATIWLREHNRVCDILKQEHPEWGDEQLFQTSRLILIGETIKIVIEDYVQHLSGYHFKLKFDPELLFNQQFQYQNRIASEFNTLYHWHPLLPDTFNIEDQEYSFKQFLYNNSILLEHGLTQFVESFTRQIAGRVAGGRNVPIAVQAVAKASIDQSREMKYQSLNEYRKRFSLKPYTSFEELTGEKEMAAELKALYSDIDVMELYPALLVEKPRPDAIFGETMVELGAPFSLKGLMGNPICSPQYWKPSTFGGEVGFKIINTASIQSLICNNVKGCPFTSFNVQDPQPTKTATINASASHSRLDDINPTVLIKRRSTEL
Nature of the test: COX Enzyme Inhibition Assay (Table 1).

The term IC50 denotes the concentration that gives 50% inhibition. High values mean lower potency, low ones higher potency.

With `COc1ccc2c(c1)c(CC(=O)O[C@@H](C(=O)O[C@H]1C[C@@]3(O)[C@@H](OC(=O)c4ccccc4)[C@@H]4[C@]5(OC(C)=O)CO[C@@H]5C[C@H](O)[C@@]4(C)C(=O)[C@H](OC(C)=O)C(=C1C)C3(C)C)[C@@H](NC(=O)c1ccccc1)c1ccccc1)c(C)n2C(=O)c1ccc(Cl)cc1` [Cytotoxic conjugates, 1], the figures for the 50% inhibitory concentration (IC50) in test [1] and in test [2] were over 25 µM and over 25000 nM, respectively.
Turning to `COc1ccc2c(c1)c(CC(=O)NCCCCOC(=O)CCC(=O)O[C@@H](C(=O)O[C@H]1C[C@@]3(O)[C@@H](OC(=O)c4ccccc4)[C@@H]4[C@]5(OC(C)=O)CO[C@@H]5C[C@H](O)[C@@]4(C)C(=O)[C@H](OC(C)=O)C(=C1C)C3(C)C)[C@@H](NC(=O)c1ccccc1)c1ccccc1)c(C)n2C(=O)c1ccc(Cl)cc1` [Cytotoxic conjugates, 3], the IC50 in test [1] is over 25 µM.
Still for that read-out and setting: under `COc1ccc2c(c1)c(CC(=O)Nc1ccc(CNC(=O)CCC(=O)O[C@@H](C(=O)O[C@H]3C[C@@]4(O)[C@@H](OC(=O)c5ccccc5)[C@@H]5[C@]6(OC(C)=O)CO[C@@H]6C[C@H](O)[C@@]5(C)C(=O)[C@H](OC(C)=O)C(=C3C)C4(C)C)[C@@H](NC(=O)c3ccccc3)c3ccccc3)cc1)c(C)n2C(=O)c1ccc(Cl)cc1` [Cytotoxic conjugates, 4] stands over 25 µM; under `COc1ccc2c(c1)c(CC(=O)NCCOC(=O)\C=C(C)/C=C/C=C(C)/C=C/C1=C(C)CCCC1(C)C)c(C)n2C(=O)c1ccc(Cl)cc1` [Cytotoxic conjugates, 5], over 25 µM.
For the compound `COc1ccc2c(c1)c(CC(=O)NCCNC(=O)/C=C(C)/C=C/C=C(C)/C=C/C1=C(C)CCCC1(C)C)c(C)n2C(=O)c1ccc(Cl)cc1` [Cytotoxic conjugates, 6], the values for the IC50 in test [1] and in test [2] were over 25 µM and 100 nM, respectively.
Regarding `COc1ccc2c(c1)c(CC(=O)NCCNC(=O)/C=C(C)/C=C/C=C(C)\C=C\C1=C(C)CCCC1(C)C)c(C)n2C(=O)c1ccc(Cl)cc1` [Cytotoxic conjugates, 7], the figures for the IC50 in test [1] and in test [2] were over 25 µM and 600 nM, respectively.
In test [1], `COc1ccc2c(c1)c(CC(=O)NCCNC(=O)CCC(=O)Nc1ccc(S(=O)(=O)Nc3nccs3)cc1)c(C)n2C(=O)c1ccc(Cl)cc1` [Cytotoxic conjugates, 8] displayed an IC50 of over 25 µM.
On to `COc1ccc2c(c1)c(CCNC(=O)CCC(=O)Nc1ccc(S(=O)(=O)Nc3nccs3)cc1)c(C)n2Cc1ccc(Br)cc1` [Cytotoxic conjugates, 9], for which the IC50 in test [1] is over 25 µM; in test [2], over 25000 nM.
For `CCC1(O)C(=O)OCc2c1cc1n(c2=O)Cc2cc3cc(OC(=O)CCC(=O)OCCNC(=O)Cc4c(C)n(C(=O)c5ccc(Cl)cc5)c5ccc(OC)cc45)ccc3nc2-1` (stereo unspecified) [Cytotoxic conjugates, 10] the same measures were over 25 µM and over 25000 nM.
As to `COc1ccc2c(c1)c(CC(=O)NCCNC(=O)CCC(=O)O[C@@H]1c3cc4c(cc3[C@H](c3cc(OC)c(OC)c(OC)c3)[C@@H]3C(=O)OCC13)OCO4)c(C)n2C(=O)c1ccc(Cl)cc1` (stereo partly specified) [Cytotoxic conjugates, 11], the values for the IC50 in test [1] and in test [2] were over 25 µM and 470 nM, respectively.
The compound `COc1ccc2c(c1)c(CC(=O)NCCCCOC(=O)CCC(=O)O[C@@H]1c3cc4c(cc3[C@H](c3cc(OC)c(OC)c(OC)c3)[C@@H]3C(=O)OCC13)OCO4)c(C)n2C(=O)c1ccc(Cl)cc1` (stereo partly specified) [Cytotoxic conjugates, 14] displayed an IC50 in test [1] of over 25 µM.
As to `COc1ccc2c(c1)c(CC(=O)NCc1ccc(CNC(=O)CCC(=O)O[C@@H]3c4cc5c(cc4[C@H](c4cc(OC)c(OC)c(OC)c4)[C@@H]4C(=O)OCC34)OCO5)cc1)c(C)n2C(=O)c1ccc(Cl)cc1` (stereo partly specified) [Cytotoxic conjugates, 15], the IC50 in test [1] was over 25 µM.
For the compound `COc1ccc2c(c1)c(CC(=O)NCCCCNC(=O)CCC(=O)OC1CCCCC1)c(C)n2C(=O)c1ccc(Cl)cc1` [Cytotoxic conjugates, 16], in test [1], the IC50 is over 25 µM.
As to `COc1cc([C@@H]2c3cc4c(cc3[C@H](O)[C@H]3COC(=O)[C@H]23)OCO4)cc(OC)c1OC` [podophyllotoxin], the values for the IC50 in test [1] and in test [2] were over 25 µM and over 25000 nM, respectively.
